The values below come from ChEMBL document CHEMBL4311967, “Continued exploration and tail approach synthesis of benzenesulfonamides containing triazole and dual triazole moieties as carbonic anhydrase I, II, IV and IX inhibitors” (Eur J Med Chem, 2019).

The test has as its target Carbonic anhydrase 9 (Homo sapiens, UniProt Q16790). The test can be described thus: Inhibition of human carbonic anhydrase 9 assessed as reduction in CO2 hydration incubated for 1 hr by phenol red staining-based stopped flow assay.
The term Ki denotes a dissociation constant, usually derived from enzyme kinetics or from competition with a known ligand. Take `Cc1c(-c2n[nH]c(=S)[nH]2)nnn1-c1ccc(S(N)(=O)=O)cc1`: the Ki was 1240 nM.
As for `NS(=O)(=O)c1ccc(-n2nnc(-c3nnc(SCC(=O)c4ccc(Cl)cc4)[nH]3)c2-c2ccccc2)cc1`, the Ki turned out to be 477 nM.
The result for `NS(=O)(=O)c1ccc(-n2nnc(-c3nnc(SCC(=O)c4ccc(F)cc4)[nH]3)c2-c2ccccc2)cc1` reads 177 nM; that for `Cc1c(C(=O)NNC(N)=S)nnn1-c1ccc(S(N)(=O)=O)cc1`, 2970 nM; that for `Cc1c(-c2nnc(SCC(=O)c3cccc(Br)c3)[nH]2)nnn1-c1ccc(S(N)(=O)=O)cc1`, 1470 nM.
Take `NS(=O)(=O)c1ccc(-n2nnc(-c3nnc(SCC(=O)c4ccccc4)[nH]3)c2-c2ccccc2)cc1`: the Ki is 135 nM.
For the compound `NS(=O)(=O)c1ccc(-n2nnc(-c3nnc(SCC(=O)c4cccc([N+](=O)[O-])c4)[nH]3)c2-c2ccccc2)cc1`, the inhibition constant Ki turned out to be 192 nM.
As for `NS(=O)(=O)c1ccc(-n2nnc(-c3nnc(SCC(=O)c4ccc(-c5ccccc5)cc4)[nH]3)c2-c2ccccc2)cc1`, the inhibition constant Ki stood at 734 nM.
On to `NS(=O)(=O)c1ccc(-n2nnc(-c3nnc(SCC(=O)c4ccc(Br)cc4)[nH]3)c2-c2ccccc2)cc1`, for which the Ki came out at 177 nM.
Turning to `Cc1ccc(C(=O)CSc2nnc(-c3nnn(-c4ccc(S(N)(=O)=O)cc4)c3-c3ccccc3)[nH]2)cc1`, the Ki is 294 nM.
Then `Cc1c(-c2nnc(SCC(=O)c3ccccc3)[nH]2)nnn1-c1ccc(S(N)(=O)=O)cc1`, with 3200 nM; and `NS(=O)(=O)c1ccc(-n2nnc(-c3n[nH]c(=S)[nH]3)c2-c2ccccc2)cc1`, with 51 nM.
For the compound `NS(=O)(=O)c1ccc(-n2nnc(-c3nnc(SCC(=O)c4cccc(Br)c4)[nH]3)c2-c2ccccc2)cc1`, the Ki stood at 278 nM.
Then `Cc1c(-c2nnc(SCC(=O)c3ccc(Cl)cc3)[nH]2)nnn1-c1ccc(S(N)(=O)=O)cc1`, with 3190 nM; and `Cc1c(-c2nnc(SCC(=O)c3ccc(-c4ccccc4)cc3)[nH]2)nnn1-c1ccc(S(N)(=O)=O)cc1`, with 226 nM.
Then `Cc1c(-c2nnc(SCC(=O)c3ccc([N+](=O)[O-])cc3)[nH]2)nnn1-c1ccc(S(N)(=O)=O)cc1`, with 3060 nM; and `NS(=O)(=O)c1ccc(-n2nnc(-c3nnc(SCC(=O)c4ccc([N+](=O)[O-])cc4)[nH]3)c2-c2ccccc2)cc1`, with 204 nM.
Then `Cc1ccc(C(=O)CSc2nnc(-c3nnn(-c4ccc(S(N)(=O)=O)cc4)c3C)[nH]2)cc1`, with 3070 nM.
Regarding `Cc1c(-c2nnc(SCC(=O)c3cccc([N+](=O)[O-])c3)[nH]2)nnn1-c1ccc(S(N)(=O)=O)cc1`, the Ki came to 2430 nM.
Then `Cc1c(-c2nnc(SCC(=O)c3ccc(F)cc3)[nH]2)nnn1-c1ccc(S(N)(=O)=O)cc1`, with 3020 nM; and `Cc1c(-c2nnc(SCC(=O)c3ccc(Br)cc3)[nH]2)nnn1-c1ccc(S(N)(=O)=O)cc1`, with 2830 nM; and `NC(=S)NNC(=O)c1nnn(-c2ccc(S(N)(=O)=O)cc2)c1-c1ccccc1`, with 111 nM.
